The assay has as its system high fat diet ZDF rats. Put plainly: NAFLD/NASH animal model, high fat diet ZDF rats. The class given is in vivo, rat. Particulars: high fat diet ZDF male rats; all three doses (0.3, 1.0, 3 mg/kg) PO q.d. for 5 weeks. How it is done:
Twelve week old ZDF male rats (n=6 per group) were acclimated for 3 weeks prior to study initiation then fed with either a high fat (D12492+0.5% added cholesterol with 55% wt/vol fructose in drinking water) or low fat (DL12405J) diets. The compound of Example 10 above, vehicle, or pioglitizone were administered by oral gavage q.d. for 5 weeks as described in Table 1.
Body weights were recorded weekly, and blood samples were collected from all animals at the end of weeks 4, 5, 6 and 7 following an overnight fast, and triglycerides, cholesterol, AST, ALT, insulin, and BG were measured in singlet. After week 8, the livers were harvested from all animals and weighed. The left lobe was placed in 10% NBF for NASH scoring by PAI (H % E staining, Oil Red O staining and Sirius Red staining). One half of the right lobe was snap-frozen for qPCR (to quantify type 1 collagen, insulin receptor, IGF-1, ceramide synthase 2, sphingomyelin phosphodiesterase 3, MCP-1 and IL-6). The remaining right lobe was snap-frozen for estimation of liver triglycerides and cholesterol.

On to `CCc1oc(-c2ccc(OC)cc2)nc1CCOc1ccc2c(c1)CC[C@H]2CC(=O)O` [Example 10, (S)-2-(5-(2-(5-ethyl-2-(4-methoxyphenyl)oxazol-4-yl)ethoxy)-2,3-dihydro-1H-inden-1-yl)acetic acid], for which the “protection from NASH like symptoms” value is given as “protection from NASH like symptoms”.

Values taken from patent publication US20180117013A1, “METHODS OF TREATING LIVER DISEASE USING INDANE ACETIC ACID DERIVATIVES” (T3D THERAPEUTICS, INC., priority 2015, published 2018).
